Test results reported in BigSolDB 2.1.

CCOc1ccc(OCC)cc1
solubility (mole fraction)
Conditions | 278.15 K | 283.15 K | 288.15 K | 293.15 K | 298.15 K | 303.15 K | 308.15 K | 313.15 K | 318.15 K
in 2-butanone | 0.077 | 0.0958 | 0.113 | 0.136 | 0.169 | 0.204 | 0.257 | 0.31 | 0.406
in acetone | 0.0531 | 0.0679 | 0.0839 | 0.0969 | 0.12 | 0.158 | 0.204 | 0.263 | 0.341
in acetonitrile | 0.0204 | 0.0265 | 0.0372 | 0.0498 | 0.0672 | 0.102 | 0.141 | 0.251 | 0.473
in dimethyl carbonate | 0.0243 | 0.0339 | 0.0537 | 0.072 | 0.0994 | 0.145 | 0.193 | 0.25 | 0.342
in ethanol | 0.00307 | 0.00646 | 0.00901 | 0.0119 | 0.0155 | 0.0189 | 0.0234 | 0.031 | 0.043
in ethyl acetate | 0.0775 | 0.0933 | 0.113 | 0.145 | 0.179 | 0.218 | 0.264 | 0.313 | 0.372
in ethyl lactate | 0.0196 | 0.0305 | 0.0458 | 0.0578 | 0.0738 | 0.0875 | 0.109 | 0.148 | 0.213
in isobutyl acetate | 0.0332 | 0.045 | 0.0655 | 0.0872 | 0.112 | 0.145 | 0.181 | 0.225 | 0.281
in methanol | 0.00207 | 0.00338 | 0.00473 | 0.00666 | 0.00924 | 0.0115 | 0.0158 | 0.0212 | 0.0309
in methyl acetate | 0.0544 | 0.0685 | 0.0905 | 0.112 | 0.145 | 0.193 | 0.24 | 0.29 | 0.347
in n-butyl acetate | 0.0821 | 0.11 | 0.142 | 0.172 | 0.213 | 0.254 | 0.293 | 0.347 | 0.432
in n-propyl acetate | 0.0586 | 0.0753 | 0.0981 | 0.133 | 0.165 | 0.202 | 0.255 | 0.313 | 0.383
